Laboratory results: patent publication US4062944A, “Mixture of antibiotics produced by new species of micromonospora” (Pfizer Inc., priority 1976, dated 1977)
Converted amounts (≈) assume the structure as drawn. Where two headings read alike, the source gives them in different places.

Key:
[1] = Antibiotic properties of hexahydro derivatives compared with parent compounds; conditions: compared with the parent compound
M. tuber. H37Rv = experiment: Minimal inhibitory concentration, nutrient broth tube dilution, M. tuberculosis; format: cell-based; conditions: Mycobacterium tuberculosis
Description: (§1) These tests were run by preparing tubes of nutrient broth with gradually increasing concentrations of the pure antibiotic and then seeding the broths with the particular organism specified. […] The tests were conducted under standardized conditions as described in Proc. Soc. Exp. Biol. & Med. 122, ll07 (1966). Tables II and III illustrate the in vivo activity of these new antibiotics in experimentally infected mice.

Staphylococci = experiment: In vivo activity in experimentally infected mice, Staphylococci (PD50); conditions: Mus musculus, read-out: PD50 (dose that provides 50% protection)
Description: as §1
(§2) *Dose that provides 50% protection?

Diplococci = experiment: In vivo activity in experimentally infected mice, Diplococci (PD50); conditions: Mus musculus, oral, read-out: PD50 (dose that provides 50% protection)
Description: as §1, §2

[2] = test system: S. aureus (multi-resistant); experiment: Minimal inhibitory concentration, nutrient broth tube dilution, S. aureus (multi-resistant); format: cell-based; conditions: Staphylococcus aureus
Description: as §1

Streptococcus pyogenes = experiment: Minimal inhibitory concentration, nutrient broth tube dilution, Streptococcus pyogenes; format: cell-based
Description: as §1

Streptococci = experiment: In vivo activity in experimentally infected mice, Streptococci (PD50); conditions: Mus musculus, oral, read-out: PD50 (dose that provides 50% protection)
Description: as §1, §2

Staphylococcus aureus = experiment: Minimal inhibitory concentration, nutrient broth tube dilution, Staphylococcus aureus; format: cell-based
Description: as §1

M. tuberculosis = M. tuberculosis infection in mice, survival; format: in vivo; conditions: evaluated at 53 days post challenge; for Percent Survival: control 20; for Average Survival Time: control 37.7
Description: as §1
M. tuberculosis Infection in Mice
*Evaluated at 53 days post challenge

Compound	antibiotic properties / antibiotic activity [1]	MIC (M. tuber. H37Rv) [ng/mL]	ED50 (Staphylococci; oral) [mg/kg]	ED50 (Staphylococci; sc, subcutaneous) [mg/kg]	ED50 (Diplococci) [mg/kg]	MIC [2] [ng/mL]	MIC (Streptococcus pyogenes) [ng/mL]	ED50 (Streptococci) [mg/kg]	MIC (Staphylococcus aureus) [ng/mL]	Percent Survival (M. tuberculosis; daily dose 0.5 mg) [%]	Average Survival Time (M. tuberculosis; daily dose 0.5 mg) [days]	Percent Survival (M. tuberculosis; daily dose 5.0 mg) [%]	Average Survival Time (M. tuberculosis; daily dose 5.0 mg) [days]
hexahydro derivative of 3-methylthiorifamycin SV	comparable to those of the parent compounds												
COC1C=COC2(C)Oc3c(C)c(O)c4c(c3C2=O)C(=O)C(SC)=C(NC(=O)C(C)=CC=CC(C)C(O)C(C)C(O)C(C)C(OC(C)=O)C1C)C4=O (stereo not shown) [3-methylthiorifamycin S]		6 (≈ 8.09 nM)	1.4	0.17	> 12.5	1.2 to 3.9 (≈ 1.62 to 5.26 nM)	0.9 (≈ 1.21 nM)	0.6	0.4 (≈ 0.539 nM)				
hexahydro-3-methylthiorifamycin S	comparable to those of the parent compounds												
COC1C=COC2(C)Oc3c(C)c(O)c4c(O)c(c(SC)c(O)c4c3C2=O)NC(=O)C(C)=CC=CC(C)C(O)C(C)C(O)C(C)C(OC(C)=O)C1C (stereo not shown) [3-methylthiorifamycin SV]		15 (≈ 20.2 nM)	1.1	0.65	8	1.9 to 3.9 (≈ 2.55 to 5.24 nM)	1.9 (≈ 2.55 nM)	0.22	1.9 (≈ 2.55 nM)	70	44.3	100	53.0
